Values quoted from earlier work in patent publication US20050101577A1, “2-alkylidene-19-nor-vitamin D derivatives for the treatment of rickets or vitamin D deficiency” (Pfizer Inc., priority 2003, published 2005).

Test system: intestinal calcium transport
Settings: 260 pmol/day, only dose tested

Compound: C=C1/C(=C\C=C2/CCC[C@]3(C)[C@@H]([C@H](C)CCCC(C)(C)O)CC[C@@H]23)C[C@@H](O)C[C@@H]1O [1,25-(OH)2D3, 1,25-dihydroxyvitamin D3]
- intestinal calcium transport (in words): expected elevation of intestinal calcium transport
